Results: patent US9573970B2, “4-{4-[(1E)-4-(2,9-diazaspiro[5.5]undec-2-yl)but-1-en-1-yl]-2-methylbenzyl}-5-(propan-2-yl)-1H-pyrazol-3-yl beta-D glucopyranoside acetate” (Eli Lilly and Company, priority 2013, dated 2017)

Tested on: normal glycemic C57B1/6 mouse
Test: Glucose lowering effects in oral glucose tolerance test (OGTT)
Assay type: in vivo
Details: for Glucose, 20 Minute: 20 min after dextrose; for Glucose, 20 Minute / Glucose, 40 Minute / Glucose, 60 Minute / Glucose, 120 Minute / Baseline Adjusted AUC (glucose) / Glucose, 0 Minute: mean ± SE; for Glucose, 40 Minute: 40 min after dextrose; for Glucose, 60 Minute: 60 min after dextrose; for Glucose, 120 Minute: 120 min after dextrose; for Baseline Adjusted AUC (glucose): OGTT; for Glucose, 0 Minute: baseline 3 h after compound, before dextrose 3 g/kg
Experimental: The test compound is formulated by adding a vehicle of 1% hydroxyethylcellulose, 0.25% Tween® 80 w/antifoam 0.05% to preweighed test compound to make a 1 mg/ml solution. The mixture is probe sonicated for approximately 30 seconds. The resulting solution is used as a stock solution from which the lower concentration dose solutions are prepared by dilution with the vehicle.
Single housed C57B1/6 mice are fasted overnight by removing access to food the late afternoon before test day. The following morning, the mice are weighed and a single fasting blood sample is taken by tail snip to measure glucose by glucometer (Roche AccuChek). Study groups (n=5) are determined based on fasted blood glucose and comprise preferably animals in the range of 80-100 mg/dl glucose.
After grouping, the first mouse is orally gavaged with 10 ml/kg test compound preparation and a timer started. Each subsequent animal is dosed a minute and a half apart. Three hours after the first compound treatment is started, a baseline blood sample is taken for measuring glucose (from the first animal, via tail snip). The animal is then immediately given an oral dose of 50% dextrose (Hospira) at 3 g/kg. Blood samples are taken for glucose, exactly a minute and half apart, by tail vein so that blood is collected in each animal at 20, 40, 60 and 120 minutes after the dextrose dose.

Cc1cc(/C=C/CCN2CCCC3(CCNCC3)C2)ccc1Cc1c(O[C@@H]2O[C@H](CO)[C@@H](O)[C@H](O)[C@H]2O)n[nH]c1C(C)C [Example 1 (free base), 4-{4-[(1E)-4-(2,9-diazaspiro[5.5]undec-2-yl)but-1-en-1-yl]-2-methylbenzyl}-5-(propan-2-yl)-1H-pyrazol-3-yl beta-D-glucopyranoside]
Glucose, 20 Minute (0.3 mg/kg oral): 185 ± 13.7 mg/dL
Glucose, 40 Minute (0.3 mg/kg oral): 197 ± 14.7 mg/dL
Glucose, 60 Minute (0.3 mg/kg oral): 164 ± 6.3 mg/dL
Glucose, 120 Minute (0.3 mg/kg oral): 121 ± 11.8 mg/dL
Baseline Adjusted AUC (glucose) (0.3 mg/kg oral, in mg·min/dL): 5400 ± 519^
Glucose, 0 Minute (0.3 mg/kg oral): 78 ± 4.2 mg/dL
Glucose, 20 Minute (1 mg/kg oral): 147 ± 8.3 mg/dL
Glucose, 40 Minute (1 mg/kg oral): 171 ± 11.1 mg/dL
Glucose, 60 Minute (1 mg/kg oral): 162 ± 5.8 mg/dL
Glucose, 120 Minute (1 mg/kg oral): 109 ± 7.3 mg/dL
Baseline Adjusted AUC (glucose) (1 mg/kg oral, in mg·min/dL): 4158 ± 374^
Glucose, 0 Minute (1 mg/kg oral): 76 ± 3.3 mg/dL
Glucose, 20 Minute (3 mg/kg oral): 133 ± 7.1 mg/dL
Glucose, 40 Minute (3 mg/kg oral): 150 ± 7.5 mg/dL
Glucose, 60 Minute (3 mg/kg oral): 155 ± 7.2 mg/dL
Glucose, 120 Minute (3 mg/kg oral): 115 ± 10 mg/dL
Baseline Adjusted AUC (glucose) (3 mg/kg oral): 3606 ± 421
Glucose, 0 Minute (3 mg/kg oral): 72 ± 2.6 mg/dL
Glucose, 20 Minute (10 mg/kg oral): 124 ± 1.2 mg/dL
Glucose, 40 Minute (10 mg/kg oral): 137 ± 5.4 mg/dL
Glucose, 60 Minute (10 mg/kg oral): 138 ± 6.1 mg/dL
Glucose, 120 Minute (10 mg/kg oral): 114 ± 4.3 mg/dL
Baseline Adjusted AUC (glucose) (10 mg/kg oral): 2693 ± 309
Glucose, 0 Minute (10 mg/kg oral): 78 ± 5.4 mg/dL
Baseline adjusted glucose AUC during an OGTT (0.3-10 mg/kg oral, in words): dose dependent decrease in baseline adjusted glucose area under the curve (AUC)
Glucose excursion following an oral bolus of 50% dextrose (0.3-10 mg/kg oral, in words): dose dependent decrease in the glucose excursion
